The supplement of paper PMC8633005

Legend:
[1] = tested on: FM-MEL-3; test: drug sensitivity score (DSS) (DSS (unitless)); higher = more sensitive; details: 72 h
Method: (§1)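 Validation dose-response testing of selected drugs on NRAS-mutant melanoma patient-derived cells, run in 2D culture and in 3D spheroids (ultra-low attachment plates), in triplicate per concentration. Viability was read by CellTiter-Glo after 72 h. EC50 came from Breeze curve fitting, and DSS was calculated from the curve.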

[2] = tested on: FM-MEL-2; test: as above; details: 72 h
Method: as §1

[3] = tested on: FM-MEL-6; test: as above; details: 72 h
Method: as §1

[4] = tested on: FM-MEL-3; details: 72 h
Method: as §1

[5] = tested on: FM-MEL-2; details: 72 h
Method: as §1

[6] = tested on: FM-MEL-6; details: 72 h
Method: as §1

[7] = tested on: FM-MEL-3; test: drug sensitivity score (DSS) (DSS (unitless, 0-50 scale)); higher = more sensitive (stronger viability inhibition); extreme values may be limits of the assay; details: 72 h; culture: 2D
Summary of the method: (§2)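 Melanoma cell lines and patient-derived melanoma cultures at 1000–1500 cells per well were exposed in 2D, in 384-well plates, to a 527-compound oncology library at five concentrations spanning a 10,000-fold range for 72 h at 37 °C. CellTiter-Glo luminescence then measured viability. From dose-response curves fitted in the in-house Breeze software, a drug sensitivity score, a modified area-under-curve measure, was obtained.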

[8] = tested on: Bowes; test: as above; details: 72 h; culture: 2D
Summary of the method: as §2

[9] = tested on: FM-MEL-2; test: as above; details: 72 h; culture: 2D
Summary of the method: as §2

[10] = tested on: WM852; test: as above; details: 72 h; culture: 2D
Summary of the method: as §2

[11] = tested on: SK-MEL-28; test: as above; details: 72 h; culture: 2D
Summary of the method: as §2

[12] = tested on: FM-MEL-6; test: as above; details: 72 h; culture: 2D
Summary of the method: as §2

[13] = tested on: WM165; test: as above; details: 72 h; culture: 2D
Summary of the method: as §2

[14] = tested on: SK-MEL-2; test: as above; details: 72 h; culture: 2D
Summary of the method: as §2

Row | Compound | drug sensitivity score ([1]; culture: 2D) | drug sensitivity score ([1]; culture: 3D spheroid) | drug sensitivity score ([2]; culture: 2D) | drug sensitivity score ([2]; culture: 3D spheroid) | drug sensitivity score ([3]; culture: 2D) | drug sensitivity score ([3]; culture: 3D spheroid) | EC50 (cell viability) ([4]; culture: 2D) [nM] | EC50 (cell viability) ([4]; culture: 3D spheroid) [nM] | EC50 (cell viability) ([5]; culture: 2D) [nM] | EC50 (cell viability) ([5]; culture: 3D spheroid) [nM] | EC50 (cell viability) ([6]; culture: 2D) [nM] | EC50 (cell viability) ([6]; culture: 3D spheroid) [nM] | drug sensitivity score [7] | drug sensitivity score [8] | drug sensitivity score [9] | drug sensitivity score [10] | drug sensitivity score [11] | drug sensitivity score [12] | drug sensitivity score [13] | drug sensitivity score [14]
1 | CNc1ncc2cc(-c3cc(NC(=O)NCCC(C)(C)C)c(F)cc3C)c(C)nc2n1 | 24.5 | 26.6 | 20.6 | 20.8 | 11.3 | 16.9 | 83.3 | 64.9 | 59.3 | 59.8 | 187 | 97.3 | 25.4 | 7.4 | 19.9 | 10.2 | 20.3 | 14.4 | 25.4 | 15.2
2 | O=C(Nc1ccc2[nH]nc(-c3ccncc3)c2c1)[C@@H]1CCN(CC(=O)N2CCN(c3ccc(-c4ncccn4)cc3)CC2)C1 | 22.5 | 26.2 | 17.7 | 25 | 11.2 | 17.2 | 97.1 | 69 | 206 | 54.5 | 210 | 120 | 22.8 | 1.3 | 20.8 | 8.2 | 21.8 | 12.7 | 21.2 | 15.6
3 | C=CCn1c(=O)c2cnc(Nc3ccc(N4CCN(C)CC4)cc3)nc2n1-c1cccc(C(C)(C)O)n1 [AZD1775] | 14 | 15.6 | 5.8 | 4.5 | 1.7 | 0 | 242 | 257 | 378 | 364 | 1800 | > 10000 | 12.8 | 15.2 | 7.6 | 14.5 | 4.3 | 12.5 | 13.1 | 11.3
4 | COc1ccc(-c2ccc3c(N4CCOC[C@@H]4C)nc(N4CCOC[C@@H]4C)nc3n2)cc1CO [AZD8055] | 20.3 | 26.2 | 18.2 | 18.1 | 11.3 | 13.4 | 72.8 | 50.7 | 60.6 | 54.1 | 94.2 | 66.2 | 14.2 | 20.1 | 15.6 | 15 | 16.4 | 17.3 | 21.7 | 13.9
5 | Cn1cnc2c(F)c(Nc3ccc(Br)cc3F)c(C(=O)NOCCO)cc21 [Binimetinib] | 19.5 | 21.1 | 11 | 12.9 | 9.4 | 15.7 | 7.2 | 10.1 | 40.3 | 28.8 | 34.3 | 15.7 | 13.7 | 0 | 8.7 | 0.4 | 8.8 | 7.7 | 9.5 | 6.3
6 | O=C(c1ccc(F)c(F)c1Nc1ccc(I)cc1F)N1CC(O)([C@@H]2CCCCN2)C1 [Cobimetinib] | 20.7 | 26.6 | 20.2 | 21.8 | 10.4 | 19.5 | 12.5 | 6.2 | 5.7 | 4 | 28.1 | 8.1 | 20.7 | 0.3 | 15.5 | 4.3 | 21.3 | 9.4 | 21.3 | 11.5
7 | Cn1c(=O)n(-c2ccc(C(C)(C)C#N)cc2)c2c3cc(-c4cnc5ccccc5c4)ccc3ncc21 [Dactolisib] | 13.7 | 22.9 | 13.5 | 14.6 | 7.4 | 10.1 | 22.6 | 7.4 | 15.2 | 12.1 | 26.9 | 13.1 | 15.1 | 12.8 | 12.5 | 10.7 | 13.5 | 15.1 | 17.6 | 9.9
8 | CC(C)NC(=O)COc1cccc(-c2nc(Nc3ccc4[nH]ncc4c3)c3ccccc3n2)c1 [KD025] | 0 | 4.5 | 21.7 | 24.2 | 0 | 0 | > 5000 | 440 | 55.7 | 42.8 | > 5000 | > 5000 | 13 | 2.6 | 18.9 | 7.5 | 1.6 | 3 | 5.4 | 0
9 | Cc1cn(-c2cc(NC(=O)c3ccc(C)c(Nc4nccc(-c5cccnc5)n4)c3)cc(C(F)(F)F)c2)cn1 [Nilotinib] | 9.5 | 15.1 | 10.9 | 16.7 | 0 | 0 | 940 | 266 | 869 | 270 | > 10000 | > 10000 | 8.5 | 0 | 12.4 | 0.8 | 0 | 2.1 | 0 | 0
10 | COc1ncc(-c2ccc3nccc(-c4ccnnc4)c3c2)cc1NS(=O)(=O)c1ccc(F)cc1F [Omipalisib] | 24.1 | 27.3 | 16.9 | 17.5 | 14.9 | 19 | 7.3 | 5.2 | 5.5 | 4 | 5.5 | 4.4 | 17.9 | 16.9 | 15.3 | 13.8 | 16.3 | 14.7 | 15.5 | 9.5
11 | COc1cccc(OCCCN)c1-c1cc(Nc2cnc(C#N)cn2)n[nH]1 [Prexasertib] | 21.1 | 25.6 | 7.7 | 4.9 | 6.4 | 0.8 | 52 | 48.7 | 851 | 2030 | 137 | 6570 | 19.1 | 28.6 | 10.5 | 27.7 | 8.6 | 26.6 | 24.1 | 28.7
12 | CC(C)(C)c1cc(NC(=O)Nc2ccc(-c3cn4c(n3)sc3cc(OCCN5CCOCC5)ccc34)cc2)no1 [Quizartinib] | 0 | 0 | 10.5 | 14.5 | 0 | 0 | > 1000 | > 1000 | 95.7 | 45.3 | > 1000 | > 1000 | 5.1 | 1.2 | 10.5 | 0.3 | 0 | 0 | 1 | 0
13 | COc1cc(OC)c(/C=C/S(=O)(=O)Cc2ccc(OC)c(NCC(=O)O)c2)c(OC)c1 [Rigosertib] | 13.2 | 16.9 | 10.8 | 10.5 | 8.6 | 1.3 | 42 | 39.2 | 44.2 | 110 | 56.2 | 1540 | 15.5 | 19.9 | 7.6 | 22.6 | 9.5 | 18.6 | 21.4 | 17
14 | Cn1cnc2c(F)c(Nc3ccc(Br)cc3Cl)c(C(=O)NOCCO)cc21 [Selumetinib] | 23.8 | 27.1 | 19.7 | 20.3 | 16.3 | 21.9 | 78.9 | 56.4 | 75.6 | 71 | 83.6 | 56.1 | 24.9 | 0 | 16.5 | 4.9 | 18.2 | 13 | 17.3 | 13.2
15 | CC(=O)Nc1cccc(-n2c(=O)n(C3CC3)c(=O)c3c(Nc4ccc(I)cc4F)n(C)c(=O)c(C)c32)c1 [Trametinib] | 27.6 | 34.6 | 22.3 | 23.3 | 17.1 | 24 | 0.8 | 0.2 | 0.6 | 0.5 | 1.3 | 0.5 | 26.1 | 1.8 | 18.1 | 6.8 | 21.1 | 15.6 | 21.2 | 17.9
16 | CC(C)Nc1cc(-c2c[nH]c(C(=O)N[C@H](CO)c3cccc(Cl)c3)c2)c(Cl)cn1 [Ulixertinib] | 17 | 25.2 | 16.5 | 19.4 | 8.1 | 15.3 | 279 | 83.1 | 127 | 76 | 236 | 125 | 17.1 | 4.2 | 15 | 4.1 | 13.3 | 7.6 | 12.6 | 9.7
17 | CCC1=C[C@@H]2CN(C1)Cc1c([nH]c3ccccc13)[C@@](C(=O)OC)(c1cc3c(cc1OC)N(C)[C@H]1[C@@](O)(C(=O)OC)[C@H](OC(C)=O)[C@]4(CC)C=CCN5CC[C@]31[C@@H]54)C2 [Vinorelbine] |  |  |  |  |  |  |  |  |  |  |  |  | 12.5 | 31.6 | 7.7 | 23.1 | 11 | 23.3 | 28.8 | 25.6
18 | CS(=O)(=O)c1ccc(C(=O)Nc2ccc(Cl)c(-c3ccccn3)c2)c(Cl)c1 [Vismodegib] |  |  |  |  |  |  |  |  |  |  |  |  | 0 | 0 | 0 | 0 | 0 | 0 | 0 | 0
19 | CNC(=O)c1cccc(-c2ccc3c(N4CCOC[C@@H]4C)nc(N4CCOC[C@@H]4C)nc3n2)c1 [Vistusertib] |  |  |  |  |  |  |  |  |  |  |  |  | 11.6 | 14 | 11 | 8.5 | 12.1 | 12.6 | 12.5 | 8.8
20 | CC[C@@H]1C(=O)N(C)c2cnc(Nc3ccc(C(=O)N[C@H]4CC[C@H](N5CCN(CC6CC6)CC5)CC4)cc3OC)nc2N1C(C)C [Volasertib] |  |  |  |  |  |  |  |  |  |  |  |  | 6.5 | 17.5 | 2.6 | 14.9 | 3.1 | 3.7 | 13.3 | 8.1
21 | O=C(CCCCCCC(=O)Nc1ccccc1)NO [Vorinostat] |  |  |  |  |  |  |  |  |  |  |  |  | 9.2 | 0.7 | 5.6 | 4.4 | 7.9 | 8.4 | 9.1 | 6.1
22 | Oc1nc(-c2ccc(C(F)(F)F)cc2)nc2c1CSCC2 [XAV-939] |  |  |  |  |  |  |  |  |  |  |  |  | 0 | 0 | 0 | 0 | 0 | 0 | 0 | 0
23 | FC(F)c1nc2ccccc2n1-c1nc(N2CCOCC2)nc(N2CCOCC2)n1 [ZSTK474] |  |  |  |  |  |  |  |  |  |  |  |  | 7.2 | 7 | 10.8 | 7 | 12.2 | 8.7 | 9 | 4.6
24 | Cc1sc2c(c1C)C(c1ccc(Cl)cc1)=N[C@@H](CC(=O)NCCCCNC(=O)COc1cccc3c1C(=O)N(C1CCC(=O)NC1=O)C3=O)c1nnc(C)n1-2 (some centres undefined) [dBET1] |  |  |  |  |  |  |  |  |  |  |  |  | 7.1 | 9.1 | 3.5 | 0 | 3 | 4.6 | 10.3 | 0
